In test [1] the target is T1, kynureninase (Pseudomonas fluorescens, UniProt P83788).
T1 sequence (P83788 1-416): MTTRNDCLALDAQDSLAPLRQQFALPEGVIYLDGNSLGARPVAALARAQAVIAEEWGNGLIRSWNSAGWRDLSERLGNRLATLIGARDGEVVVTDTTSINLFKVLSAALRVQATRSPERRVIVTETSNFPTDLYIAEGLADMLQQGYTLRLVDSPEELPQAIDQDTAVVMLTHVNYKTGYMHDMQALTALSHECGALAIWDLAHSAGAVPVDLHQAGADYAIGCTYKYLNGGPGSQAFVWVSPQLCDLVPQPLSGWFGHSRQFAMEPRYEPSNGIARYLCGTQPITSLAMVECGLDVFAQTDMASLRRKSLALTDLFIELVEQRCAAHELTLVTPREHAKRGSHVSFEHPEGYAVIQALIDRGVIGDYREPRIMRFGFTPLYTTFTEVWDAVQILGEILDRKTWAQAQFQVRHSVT
Put plainly: Inhibition / kinetics of tryptophan-induced bacterial kynureninase. In kind it is biochemical.

Test [2] has as its target T2, recombinant human kynureninase (Homo sapiens, UniProt Q16719).
T2 sequence (Q16719 1-465): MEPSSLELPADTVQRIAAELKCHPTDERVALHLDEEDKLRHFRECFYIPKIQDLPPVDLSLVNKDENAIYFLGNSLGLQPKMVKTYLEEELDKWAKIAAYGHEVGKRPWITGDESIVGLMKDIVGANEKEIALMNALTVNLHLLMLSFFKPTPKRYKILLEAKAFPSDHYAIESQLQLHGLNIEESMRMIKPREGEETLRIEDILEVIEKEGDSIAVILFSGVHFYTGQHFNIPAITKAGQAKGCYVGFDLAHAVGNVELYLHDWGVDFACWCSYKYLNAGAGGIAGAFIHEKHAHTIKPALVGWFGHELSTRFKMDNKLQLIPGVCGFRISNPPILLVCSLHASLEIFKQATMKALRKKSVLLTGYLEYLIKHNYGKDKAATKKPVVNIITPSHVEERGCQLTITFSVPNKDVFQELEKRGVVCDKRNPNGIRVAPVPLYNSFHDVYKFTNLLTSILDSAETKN
Put plainly: Inhibition / kinetics of recombinant human kynureninase. In kind it is biochemical. The note with it: as substrate of the human enzyme.

For test [3], the target named is T3, rat hepatic kynureninase (Rattus norvegicus, UniProt P70712).
T3 sequence (P70712 1-464): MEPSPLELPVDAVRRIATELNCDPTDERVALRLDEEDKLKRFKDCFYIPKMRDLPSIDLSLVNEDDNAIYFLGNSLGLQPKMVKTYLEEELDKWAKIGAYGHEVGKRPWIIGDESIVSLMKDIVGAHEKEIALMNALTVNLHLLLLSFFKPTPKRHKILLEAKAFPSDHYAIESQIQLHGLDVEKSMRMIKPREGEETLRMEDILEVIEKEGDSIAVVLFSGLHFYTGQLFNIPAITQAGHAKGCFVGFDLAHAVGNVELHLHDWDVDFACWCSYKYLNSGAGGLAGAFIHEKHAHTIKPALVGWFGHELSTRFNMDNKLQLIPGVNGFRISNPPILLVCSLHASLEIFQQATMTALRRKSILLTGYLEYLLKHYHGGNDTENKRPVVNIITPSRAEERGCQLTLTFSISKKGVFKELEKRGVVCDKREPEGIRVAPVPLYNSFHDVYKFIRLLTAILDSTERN
The note with it: cited from earlier work.

For test [4], the target named is T1, kynureninase. The note with it: as substrate of the Pseudomonas enzyme; cited from earlier work.
In test [5] the target is T2, recombinant human kynureninase. The settings on record: cited from earlier work.

Like-named read-outs stand apart in the source and are kept apart here.

Consider five compounds from article PMC223355 (BMC Biochemistry, 2003).

Take `Nc1ccccc1C(=O)CCC(=O)O` [desaminokynurenine]: in test [1] (bacterial enzyme, unpublished results of the authors), the inhibition constant (Ki) (usually a dissociation constant, usually derived from enzyme kinetics or from competition with a known ligand) worked out at 12 ± 3.1 µM. Further, in test [1] (bacterial kynureninase, Lineweaver-Burk and Dixon plots), the type of inhibition entry is listed as “mixed inhibitor”.
As for `Nc1ccccc1C(=O)CC(N)C(=O)O` (centres unmarked) [kynurenine], the substrate activity result in test [2] is “no appreciable substrate activity”.
For `Nc1ccccc1C(=O)C[C@H](N)C(=O)O` [L-kynurenine], the Michaelis-Menten constant (Km) (usually the substrate concentration at which the rate is half of its maximum) in test [3] (as substrate of the rat enzyme, reported values, no reference given) was 500 µM; in test [4], 44.2 µM.
For the compound `Nc1ccccc1C(=O)CC(N)C(=O)O` [kynurenine D-enantiomer, kynurenine], the Ki in test [5] (human enzyme (by context)) was 12 µM.
On to `Nc1c(O)cc(O)cc1C(=O)CCC(=O)O` [dihydroxydesamino derivative, 3,5-dihydroxydesaminokynurenine], for which the inhibition constant (Ki) in test [3] (rat enzyme (both mammalian enzymes), earlier report) was about 0.25 µM; in test [5] (recombinant human enzyme (both mammalian enzymes), earlier report), about 0.25 µM.
